The structures appear in SMILES notation.

One assay deals with MCF7. The assay can be described thus: Antiproliferative activity against human MCF7 cells assessed as cell growth inhibition measured after 48 hrs by MTT assay. The assay is classed as functional, cell-based. Particulars: MCF7, 48 h.
The subject of a further assay is MDA-MB-231. The assay can be described thus: Antiproliferative activity against human MDA-MB-231 cells assessed as cell growth inhibition measured after 48 hrs by MTT assay. Particulars: MDA-MB-231, 48 h. The format is functional, cell-based.
The subject of assay [1] is HeLa. Briefly: Antiproliferative activity against human HeLa cells assessed as cell growth inhibition measured after 48 hrs by MTT assay. The assay is classed as functional, cell-based.
Another assay concerns KYSE-150 cell line. The assay can be described thus: Antiproliferative activity against human KYSE-150 cells assessed as cell growth inhibition measured after 48 hrs by MTT assay. The format is functional, cell-based. Particulars: KYSE-150, 48 h. A general note: Tetrazolium assays rely on reduction of a dye to a coloured formazan, in cell work by metabolically active cells.

A further assay addresses Tubulin (Homo sapiens) (UniProt P68371+Q9H4B7+P0DPH7+P68366+Q13509+Q71U36+P04350+Q3ZCM7+P07437+P68363+Q9BQE3+Q6PEY2+Q13885+Q9BVA1+Q9BUF5). Briefly: Inhibition of tubulin polymerization (unknown origin) at 10 uM relative to control. The format is protein-complex assay.
The test system of assay [2] is HeLa. The assay can be described thus: Cell cycle arrest in human HeLa cells assessed as accumulation at G2/M phase at 36 uM measured after 24 hrs by propidium iodide staining based flow cytometry analysis (reference value: 13.92 %). The assay is classed as functional. (In general: In flow cytometry, cells or beads pass a laser one at a time.)
Assay [3] concerns HeLa. The assay can be described thus: Cell cycle arrest in human HeLa cells assessed as accumulation at S phase at 9 uM measured after 24 hrs by propidium iodide staining based flow cytometry analysis (reference value: 18.92 %). The assay is classed as functional.
Assay [4] concerns HeLa. Briefly: Cell cycle arrest in human HeLa cells assessed as accumulation at G0/G1 phase at 9 uM measured after 24 hrs by propidium iodide staining based flow cytometry analysis (reference value: 67.86 %). The format is functional.
Assay [5] deals with HeLa. Briefly: Cell cycle arrest in human HeLa cells assessed as accumulation at G0/G1 phase at 18 uM measured after 24 hrs by propidium iodide staining based flow cytometry analysis (reference value: 67.86 %). The format is functional.
The test system of assay [6] is HeLa. The assay can be described thus: Cell cycle arrest in human HeLa cells assessed as accumulation at S phase at 18 uM measured after 24 hrs by propidium iodide staining based flow cytometry analysis (reference value: 18.92 %). The format is functional.
The subject of assay [7] is HeLa. The assay can be described thus: Cell cycle arrest in human HeLa cells assessed as accumulation at G0/G1 phase at 36 uM measured after 24 hrs by propidium iodide staining based flow cytometry analysis (reference value: 67.86 %). The format is functional.
In assay [8] the test system is HeLa. The assay can be described thus: Cell cycle arrest in human HeLa cells assessed as accumulation at S phase at 36 uM measured after 24 hrs by propidium iodide staining based flow cytometry analysis (reference value: 18.92 %). The assay is classed as functional.
Assay [9] relates to HeLa. Briefly: Cell cycle arrest in human HeLa cells assessed as accumulation at G2/M phase at 18 uM measured after 24 hrs by propidium iodide staining based flow cytometry analysis (reference value: 13.92 %). The assay is classed as functional.
For assay [10], the system named is HeLa. Briefly: Cell cycle arrest in human HeLa cells assessed as accumulation at G2/M phase measured after 24 hrs by propidium iodide staining based flow cytometry analysis. The format is functional.
For assay [11], the system named is HeLa. The assay can be described thus: Cell cycle arrest in human HeLa cells assessed as accumulation at G2/M phase at 9 uM measured after 24 hrs by propidium iodide staining based flow cytometry analysis (reference value: 13.92 %). The format is functional.

The term IC50 denotes the midpoint of a concentration-inhibition curve. The inhibition is the percentage by which the read-out fell short of the control. For `COc1cc(F)ccc1-c1nn(-c2cc(OC)c(OC)c(OC)c2)c2ncccc12`, the IC50 in the assay with MCF7 was found to be 87.6 µM; in the assay with MDA-MB-231, 47 µM; in the assay with HeLa [1], 58.3 µM; in the assay on KYSE-150 cell line, 87.4 µM. This molecule had an inhibition against Tubulin (Homo sapiens) of 20%.
For the molecule `COc1cc(-n2nc(-c3ccc([N+](=O)[O-])cc3)c3cccnc32)cc(OC)c1OC`, the IC50 is more than 100 µM in the assay on MCF7, more than 100 µM with MDA-MB-231, 84.5 µM with HeLa [1] and more than 100 µM with KYSE-150 cell line.
Take `COC(=O)c1ccc(-n2nc(-c3cc(OC)c(OC)c(OC)c3)c3cccnc32)cc1`: the IC50 in the assay with MCF7, in the assay on MDA-MB-231, in the assay with HeLa [1] and in the assay on KYSE-150 cell line was more than 100 µM in each case.
In the case of `COc1ccc(-c2nn(-c3cc(OC)c(OC)c(OC)c3)c3ncccc23)cc1`, the IC50 in the assay on MCF7, in the assay with MDA-MB-231, in the assay on HeLa [1] and in the assay on KYSE-150 cell line was more than 100 µM each time.
Consider `COc1ccc(F)cc1-c1nn(-c2cc(OC)c(OC)c(OC)c2)c2ncccc12`, for which the IC50 is more than 100 µM in the assay with MCF7, 69.9 µM in the assay with MDA-MB-231, 91.8 µM in the assay on HeLa [1] and 74.3 µM with KYSE-150 cell line.
The like results for `COc1cc(-c2nn(Cc3ccc(F)cc3)c3ncccc23)cc(OC)c1OC` were, in that order, more than 100 µM, 61.5 µM, 92.7 µM and more than 100 µM.
For `COc1ccc(/C=C\c2cc(OC)c(OC)c(OC)c2)cc1O` [COMBRETASTATIN A4], the IC50 with MDA-MB-231 worked out at 0.017 µM; with HeLa [1], 0.003 µM; in the assay on KYSE-150 cell line, 0.6 µM.
On to `COc1ccc(-c2nn(-c3cc(OC)c(OC)c(OC)c3)c3ncccc23)cc1O`, for which the Activity came out at 48.13% in the assay on HeLa [2]; 21.18% in the assay on HeLa [3]; 51.89% with HeLa [4]; 50.48% with HeLa [5]; 14.85% in the assay on HeLa [6]; 30.61% in the assay on HeLa [7]. Further, the Activity is 21.25% in the assay on HeLa [8], 34.87% in the assay on HeLa [9], “Dose-dependent effect” in the assay on HeLa [10] and 26.93% in the assay on HeLa [11]. The 50% inhibitory concentration (IC50) amounted to 27.2 µM with MCF7, 27 µM in the assay on MDA-MB-231, 18.1 µM in the assay on HeLa [1] and 62.8 µM in the assay with KYSE-150 cell line. The molecule also showed an inhibition at Tubulin (Homo sapiens) of 31%.
With `COc1cccc(-c2nn(-c3cc(OC)c(OC)c(OC)c3)c3ncccc23)c1`, the IC50 in the assay with MCF7 was 86.9 µM; in the assay on MDA-MB-231, 86.7 µM; with HeLa [1], 85 µM; in the assay with KYSE-150 cell line, more than 100 µM.
On the same counts, the results for `COc1cc(-n2nc(-c3ccc(C)cc3)c3cccnc32)cc(OC)c1OC` are more than 100 µM, more than 100 µM, more than 100 µM and more than 100 µM.
On to `COc1ccccc1-c1nn(-c2cc(OC)c(OC)c(OC)c2)c2ncccc12`, for which the IC50 with MCF7, with MDA-MB-231, in the assay on HeLa [1] and in the assay with KYSE-150 cell line was more than 100 µM each time.
For `COc1cc(-n2nc(-c3ccc(Cl)cc3)c3cccnc32)cc(OC)c1OC`, the half-maximal inhibitory concentration (IC50) with MCF7 is 97.6 µM; with MDA-MB-231, 84.3 µM; with HeLa [1], more than 100 µM; in the assay on KYSE-150 cell line it was more than 100 µM.
As for `COc1ccc(-c2nn(-c3cc(OC)c(OC)c(OC)c3)c3ncccc23)cc1N`, the IC50 is more than 100 µM with MCF7, more than 100 µM in the assay on MDA-MB-231, 33.4 µM in the assay with HeLa [1] and 58.1 µM with KYSE-150 cell line.
As for `COc1ccc(-c2nn(-c3cc(OC)c(OC)c(OC)c3)c3ncccc23)cc1OC`, the IC50 with MCF7 is 96.8 µM; with MDA-MB-231, 28.7 µM; in the assay on HeLa [1] it was 22.7 µM; in the assay with KYSE-150 cell line, more than 100 µM. Further, the inhibition against Tubulin (Homo sapiens) worked out at 14%.
As to `COc1cc(-c2nn(-c3ccc(C(=O)NN)cc3)c3ncccc23)cc(OC)c1OC`, the IC50 in the assay with MCF7 is 65.2 µM; with MDA-MB-231 it was more than 100 µM; in the assay on HeLa [1] it was 29.7 µM; with KYSE-150 cell line, more than 100 µM.
As for `COc1cc(-n2nc(-c3ccc(F)cc3)c3cccnc32)cc(OC)c1OC`, the IC50 with MCF7 turned out to be 76.7 µM; in the assay with MDA-MB-231, 56.4 µM; in the assay with HeLa [1], 51.4 µM; in the assay on KYSE-150 cell line, 41.1 µM. The molecule also showed an inhibition on Tubulin (Homo sapiens) of 18%.
`COc1cc(-c2nn(Cc3ccc(C)cc3)c3ncccc23)cc(OC)c1OC`: the IC50 in the assay on MCF7, in the assay with MDA-MB-231, in the assay with HeLa [1] and in the assay with KYSE-150 cell line was more than 100 µM in each case.
With `COc1cc(-n2nc(-c3ccc4c(c3)OCO4)c3cccnc32)cc(OC)c1OC`, the IC50 in the assay on MCF7 was found to be 80.1 µM; with MDA-MB-231, 79.7 µM; in the assay with HeLa [1], 38.9 µM; in the assay on KYSE-150 cell line it was 58.9 µM.
For the molecule `COc1ccc(-n2nc(-c3cc(OC)c(OC)c(OC)c3)c3cccnc32)cc1OC`, the IC50 with MCF7, with MDA-MB-231, with HeLa [1] and with KYSE-150 cell line was more than 100 µM throughout.
With `COC(=O)c1ccc(-c2nn(-c3cc(OC)c(OC)c(OC)c3)c3ncccc23)cc1`, the IC50 in the assay with MCF7, in the assay with MDA-MB-231, in the assay with HeLa [1] and in the assay with KYSE-150 cell line was more than 100 µM in each case.
Take `COc1ccc(-c2nn(-c3cc(OC)c(OC)c(OC)c3)c3ncccc23)cc1[N+](=O)[O-]`: the half-inhibitory concentration (IC50) was 28.4 µM in the assay on MCF7, 37.3 µM in the assay with MDA-MB-231, 23.5 µM with HeLa [1] and more than 100 µM with KYSE-150 cell line. The molecule also registered an inhibition against Tubulin (Homo sapiens) of 16%.
In the case of `COc1cc(-n2nc(-c3ccc(C(=O)NN)cc3)c3cccnc32)cc(OC)c1OC`, the IC50 was more than 100 µM in the assay with MCF7, 51 µM in the assay with MDA-MB-231, 21.9 µM in the assay on HeLa [1] and more than 100 µM with KYSE-150 cell line.
`COc1cc(-n2nc(-c3ccc(C#N)cc3)c3cccnc32)cc(OC)c1OC`: the concentration for half-maximal inhibition (IC50) in the assay on MCF7 was 45.9 µM; in the assay with MDA-MB-231, 82.5 µM; with HeLa [1], 72.5 µM; in the assay on KYSE-150 cell line, 85.9 µM.
The like results for `COc1cc(-c2nn(-c3ccc(Cl)cc3)c3ncccc23)cc(OC)c1OC` were, in that order, more than 100 µM, more than 100 µM, more than 100 µM and more than 100 µM.
In the case of `COc1cc(-n2nc(-c3ccc(Cl)c(Cl)c3)c3cccnc32)cc(OC)c1OC`, the half-maximal inhibitory concentration (IC50) in the assay with MCF7, with MDA-MB-231, with HeLa [1] and with KYSE-150 cell line was more than 100 µM each time.
With `COc1cccc(-c2nn(-c3cc(OC)c(OC)c(OC)c3)c3ncccc23)n1`, the IC50 in the assay on MCF7, with MDA-MB-231, in the assay on HeLa [1] and with KYSE-150 cell line was more than 100 µM throughout.
On to `COc1cc(-n2nc(-c3ccccc3OC(F)(F)F)c3cccnc32)cc(OC)c1OC`, for which the IC50 in the assay on MCF7 is more than 100 µM; in the assay on MDA-MB-231, 60.5 µM; with HeLa [1] it was 78.9 µM; with KYSE-150 cell line, more than 100 µM.

For the origin of these results see ChEMBL document CHEMBL4627287, “Synthesis and biological evaluation of novel pyrazolo[3,4-b]pyridines as cis-restricted combretastatin A-4 analogues” (Bioorg Med Chem Lett, 2020).
